Structures are written as SMILES.

The test concerns HCV genotype 1b replicon. As to the kind of experiment: HCV replicon assay (HCV 1b_Huh-Luc/Neo-ET cell line, luciferase readout). It counts as cell-based. The settings on record: Hepatitis C virus; bicistronic genotype 1b replicon in Huh 7 cells, 72 h incubation, luciferase enzyme activity; read-out: Inhibition of HCV genotype 1b. How it is done: Biological activity of the compounds of the invention was determined using an HCV replicon assay. The HCV 1b_Huh-Luc/Neo-ET cell line persistently expressing a bicistronic genotype 1b replicon in Huh 7 cells was obtained from ReBLikon GMBH. This cell line was used to test compound inhibition using luciferase enzyme activity readout as a measurement of compound inhibition of replicon levels.
On Day 1 (the day after plating cells), each compound is added in triplicate to the cells. Plates are incubated for 72 h prior to determining luciferase levels. Enzyme activity was measured using a Bright-Glo Kit (cat. number E2620) manufactured by Promega Corporation. The following equation was used to generate a percent control value for each compound.
% Control=(Average Compound Value/Average Control)*100
The EC50 value was determined using GraphPad Prism and the following equation:
Y=Bottom+(Top−Bottom)/(1+10̂((LogIC50−X)*HillSlope))
EC50 values of compounds are determined several times in the replicon assay. […]
(In general: In antiviral work, replicon cells carry a viral genome segment that copies itself.)
Regarding `COC(=O)N[C@H](C(=O)N[C@@H](C)c1ncc(-c2ccc(-c3ccc(C(=O)NC[C@@H]4CCCN4C(=O)[C@@H](NC(=O)OC)C(C)C)cc3)cc2)[nH]1)C(C)C` [Compound 88], the EC50 is below 1 nM. Next, `COC(=O)N[C@H](C(=O)N1CCC[C@H]1CNC(=O)c1ccc(-c2ccc(-c3cnc([C@@H]4CCCN4C(=O)[C@@H](NC(=O)OC)[C@@H](C)OC)[nH]3)cc2)cc1)[C@@H](C)OC` [Compound 122]: below 1 nM. With `C=CC[C@H](NC(=O)OC)C(=O)N1CCC[C@H]1C(=O)Nc1ccc(-c2ccc(-c3cnc([C@@H]4CCCN4C(=O)[C@H](CC=C)NC(=O)OC)[nH]3)cc2)cc1` [Compound 75] the figure was 1 to 9.9 nM; with `COC(=O)N[C@H](C(=O)N1CCC[C@H]1CNC(=O)c1ccc(-c2ccc3nc([C@@H]4CCCN4C(=O)[C@@H](NC(=O)OC)C(C)C)[nH]c3c2)cn1)C(C)C` [Compound 115], 10 to 999 nM; with `CC(C)[C@@H](NC(=O)OC(C)(C)C)C(=O)N1CCOC[C@H]1C(=O)Nc1ccc(-c2ccc(-c3cnc([C@@H]4CCCN4C(=O)[C@H](NC(=O)OC(C)(C)C)C(C)C)[nH]3)cc2)cc1` [Compound 13], 10 to 999 nM.

Consider `O=C(N[C@@H](C(=O)N1CCC[C@H]1c1ncc(-c2ccc(Sc3ccc(-c4cnc([C@@H]5CCCN5C(=O)[C@H](NC(=O)C5CC5)c5ccccc5)[nH]4)cc3)cc2)[nH]1)c1ccccc1)C1CC1` [Compound 50], for which the EC50 was below 1 nM. On to `CC(C)(C)OC(=O)N1CCOCC1C(=O)Nc1ccc(-c2ccc(-c3cnc([C@@H]4COCCN4C(=O)OC(C)(C)C)[nH]3)cc2)cc1` (stereo partly drawn) [Compound 4], for which the EC50 was above 1000 nM. Take `COC(=O)N[C@@H](C(=O)N1CCC[C@H]1C(=O)Nc1ccc(-c2ccc3nc([C@@H]4CCCN4C(=O)[C@H](NC(=O)OC)c4ccccc4)[nH]c3c2)cc1)c1ccccc1` [Compound 74]: the EC50 was below 1 nM. Next, `COC(=O)N[C@@H](C)C(=O)N1CCC[C@H]1C(=O)NCc1ccc(-c2ccc(-c3cnc([C@@H]4CCCN4C(=O)[C@H](C)NC(=O)OC)[nH]3)cc2)cc1` [Compound 104]: 10 to 999 nM; `O=C(N[C@@H](C(=O)N1CCC[C@H]1c1ncc(-c2ccc(Oc3ccc(-c4cnc([C@@H]5CCCN5C(=O)[C@H](NC(=O)C5CC5)c5ccccc5)[nH]4)cc3)cc2)[nH]1)c1ccccc1)C1CC1` [Compound 54]: below 1 nM. As for `COC(=O)N[C@H](C(=O)N1CCC[C@H]1CNC(=O)c1ccc(-c2ccc3c(c2)CCc2nc([C@@H]4CCCN4C(=O)[C@@H](NC(=O)OC)C(C)C)[nH]c2-3)cc1)C(C)C` [Compound 84], the EC50 is below 1 nM. As for `CC(C)[C@@H](NC(=O)C1CC1)C(=O)N1CCOC[C@H]1C(=O)Nc1ccc(-c2ccc(-c3cnc([C@@H]4COCCN4C(=O)[C@H](NC(=O)C4CC4)C(C)C)[nH]3)cc2)cc1` [Compound 25], the EC50 fell in the range of 1 to 9.9 nM. Next, `C#CC[C@H](NC(=O)OC)C(=O)N1CCC[C@H]1C(=O)Nc1ccc(-c2ccc(-c3cnc([C@@H]4CCCN4C(=O)[C@H](CC#C)NC(=O)OC)[nH]3)cc2)cc1` [Compound 76]: 1 to 9.9 nM.

As for `C[C@@H](NC(=O)C1CC1)C(=O)N1CCOC[C@H]1C(=O)Nc1ccc(-c2ccc(-c3cnc([C@@H]4CCCN4C(=O)[C@@H](C)NC(=O)C4CC4)[nH]3)cc2)cc1` [Compound 22], the EC50 was in the range of 1 to 9.9 nM. Next, `COC(=O)N[C@@H](C(=O)N1CCC[C@H]1c1ncc(-c2ccc(-c3ccc(C(=O)NC[C@@H]4CCCN4C(=O)[C@H](NC(=O)N4CCOCC4)c4ccccc4)cc3)cc2)[nH]1)c1ccccc1` [Compound 67]: below 1 nM; `COC(=O)N[C@H](C(=O)N1CCC[C@H]1CNC(=O)c1ccc(-c2ccc(-c3cnc([C@@H]4CCCN4C(=O)[C@@H](NC(=O)OC)C4CCOCC4)[nH]3)cc2)cc1)C1CCOCC1` [Compound 123]: 1 to 9.9 nM. Next, `C[C@@H](NC(=O)C1CC1)C(=O)N1CCC[C@H]1C(=O)Nc1ccc(-c2ccc(-c3cnc([C@@H]4COCCN4C(=O)[C@@H](C)NC(=O)C4CC4)[nH]3)cc2)cc1` [Compound 19]: 1 to 9.9 nM; `C[C@@H](NC(=O)[C@@H]1CCCN1C(=O)[C@H](NC(=O)OC(C)(C)C)c1ccccc1)c1ccc(-c2ccc(-c3cnc([C@@H]4CCCN4C(=O)[C@H](NC(=O)OC(C)(C)C)c4ccccc4)[nH]3)cc2)cc1` [Compound 39]: below 1 nM. For `COC(=O)N[C@@H](C(=O)N1CCC[C@H]1CNC(=O)c1ccc(-c2ccc(-c3cnc([C@@H]4CCCN4C(=O)[C@H](NC(=O)OC)c4ccccc4)[nH]3)nc2)cc1)c1ccccc1` [Compound 91], the EC50 was below 1 nM. Regarding `O=C(N[C@@H](C(=O)N1CCOC[C@H]1C(=O)Nc1ccc(-c2ccc(-c3cnc([C@@H]4COCCN4C(=O)[C@H](NC(=O)C4CC4)c4ccccc4)[nH]3)cc2)cc1)c1ccccc1)C1CC1` [Compound 1], the EC50 is below 1 nM.

Turning to `CC(C)[C@@H](NC(=O)OC(C)(C)C)C(=O)N1CCC[C@H]1c1ncc(-c2ccc(Oc3ccc(-c4cnc([C@@H]5CCCN5C(=O)[C@H](NC(=O)OC(C)(C)C)C(C)C)[nH]4)cc3)cc2)[nH]1` [Compound 48], the EC50 lay within 1 to 9.9 nM. With `O=C(N[C@@H](C(=O)N1CCC[C@H]1COc1ccc(-c2ccc(-c3cnc([C@@H]4CCCN4C(=O)[C@H](NC(=O)C4CC4)c4ccccc4)[nH]3)cc2)cc1)c1ccccc1)C1CC1` [Compound 31], the EC50 was below 1 nM. For the compound `CC(C)(C)OC(=O)N1CCC[C@H]1C(=O)Nc1ccc(-c2ccc(-c3cnc([C@@H]4COCCN4C(=O)OC(C)(C)C)[nH]3)cc2)cc1` [Compound 5], the EC50 is above 1000 nM. In the case of `C[C@@H](NC(=O)[C@@H]1CCCN1C(=O)[C@H](NC(=O)N1CCN(C)CC1)c1ccccc1)c1ccc(-c2ccc(-c3cnc([C@@H]4CCCN4C(=O)[C@H](NC(=O)N4CCN(C)CC4)c4ccccc4)[nH]3)cc2)cc1` [Compound 42], the EC50 lay within 1 to 9.9 nM. With `COC(=O)N[C@H](C(=O)N1CCC[C@H]1C(=O)N[C@@H](C)c1ccc(-c2ccc(-c3cnc([C@@H]4CCCN4C(=O)[C@@H](NC(=O)OC)[C@@H](C)OC)[nH]3)cc2)cc1)[C@@H](C)OC` [Compound 100] the figure was below 1 nM.

Take `C[C@@H](NC(=O)C1CC1)C(=O)N1CCC[C@H]1c1ncc(-c2ccc(Oc3ccc(-c4cnc([C@@H]5CCCN5C(=O)[C@@H](C)NC(=O)C5CC5)[nH]4)cc3)cc2)[nH]1` [Compound 58]: the EC50 lay within 10 to 999 nM. Regarding `COC(=O)N[C@H](C(=O)N1CCC[C@H]1C(=O)NCc1ccc(-c2ccc(-c3cnc([C@@H]4CCCN4C(=O)[C@@H](NC(=O)OC)[C@@H](C)OC)[nH]3)cc2)cc1)[C@@H](C)OC` [Compound 106], the EC50 lay in the range of 10 to 999 nM. For the compound `COC(=O)N[C@H](C(=O)N1CCC[C@H]1C(=O)NCc1ccc(-c2ccc(-c3cnc([C@@H]4CCCN4C(=O)[C@@H](NC(=O)OC)C4CCOCC4)[nH]3)cc2)cc1)C1CCOCC1` [Compound 107], the EC50 was in the range of 10 to 999 nM. With `COC(=O)N[C@H](C(=O)N1CCC[C@H]1CNC(=O)c1ccc(-c2ccc(-c3cnc([C@@H]4CCCN4C(=O)[C@@H](NC(=O)OC)C(C)C)[nH]3)cc2)cn1)C(C)C` [Compound 83] the figure was 1 to 9.9 nM. With `COC(=O)N[C@@H](C)C(=O)N1CCC[C@H]1CNC(=O)c1ccc(-c2ccc(-c3cnc([C@@H]4CCCN4C(=O)[C@H](C)NC(=O)OC)[nH]3)cc2)cc1` [Compound 98] the figure was 1 to 9.9 nM. Next, `COC(=O)N[C@@H](C(=O)N1CCC[C@H]1CNC(=O)c1ccc(-c2ccc(-c3cnc([C@@H]4CCCN4C(=O)[C@H](NC(=O)N4CCN(C)CC4)c4ccccc4)[nH]3)cc2)cc1)c1ccccc1` [Compound 68]: below 1 nM. As for `CC(C)[C@@H](NC(=O)C1CC1)C(=O)N1CCC[C@H]1c1ncc(-c2ccc(Oc3ccc(-c4cnc([C@@H]5CCCN5C(=O)[C@H](NC(=O)C5CC5)C(C)C)[nH]4)cc3)cc2)[nH]1` [Compound 53], the EC50 lay in the range of 1 to 9.9 nM. Consider `COC(=O)N[C@@H](C(=O)N[C@@H](C)c1ncc(-c2ccc(-c3ccc(C(=O)NC[C@@H]4CCCN4C(=O)[C@H](NC(=O)OC)c4ccccc4)cc3)cc2)[nH]1)c1ccccc1` [Compound 89], for which the EC50 was below 1 nM. With `C[C@@H](NC(=O)OC(C)(C)C)C(=O)N1CCC[C@H]1C(=O)Nc1ccc(-c2ccc(-c3cnc([C@@H]4COCCN4C(=O)[C@@H](C)NC(=O)OC(C)(C)C)[nH]3)cc2)cc1` [Compound 9], the EC50 was in the range of 10 to 999 nM.

As to `COC(=O)N[C@H](C(=O)N1CCC[C@H]1C(=O)Nc1ccc(-c2ccc(-c3cnc([C@@H]4CCCN4C(=O)[C@@H](NC(=O)OC)C(C)C)[nH]3)cc2)cc1)C(C)C` [Compound 109], the EC50 was 10 to 999 nM. On to `CN1CCN(C(=O)N[C@@H](C(=O)N2CCC[C@H]2C(=O)NCc2ccc(-c3ccc(-c4cnc([C@@H]5CCCN5C(=O)[C@H](NC(=O)N5CCN(C)CC5)c5ccccc5)[nH]4)cc3)cc2)c2ccccc2)CC1` [Compound 45], for which the EC50 was 1 to 9.9 nM. Take `C[C@H](NC(=O)[C@@H]1CCCN1C(=O)[C@H](NC(=O)N1CCN(C)CC1)c1ccccc1)c1ccc(-c2ccc(-c3cnc([C@@H]4CCCN4C(=O)[C@H](NC(=O)N4CCN(C)CC4)c4ccccc4)[nH]3)cc2)cc1` [Compound 36]: the EC50 was in the range of 1 to 9.9 nM.

With `CC(C)[C@@H](NC(=O)C1CC1)C(=O)N1CCC[C@H]1C(=O)Nc1ccc(-c2ccc(-c3cnc([C@@H]4COCCN4C(=O)[C@H](NC(=O)C4CC4)C(C)C)[nH]3)cc2)cc1` [Compound 20], the EC50 was 1 to 9.9 nM. Turning to `CC(C)(C)OC(=O)N[C@@H](C(=O)N1CCC[C@H]1C(=O)Nc1ccc(-c2ccc(-c3cnc([C@@H]4CCCN4C(=O)[C@H](NC(=O)OC(C)(C)C)c4ccccc4)[nH]3)cc2)cc1)c1ccccc1` [Compound 26], the EC50 is below 1 nM.
